Laboratory results published in PubChem BioAssay (NCI).
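All cell lines were grown in 96-well plates and treated with compound for 48 hours. The concentration for 50% growth inhibition is given as GI50. TGI is the concentration that stops growth completely.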

Tests used:
Assay in all cases: NCI-60 cell line screen, 48 h
MOLT-4 leukemia = system: MOLT-4 leukemia
NCI-H226 lung = system: NCI-H226 lung
NCI-H23 lung = system: NCI-H23 lung
NCI-H460 lung = system: NCI-H460 lung
NCI-H522 lung = system: NCI-H522 lung
NCI/ADR-RES ovarian = system: NCI/ADR-RES ovarian
OVCAR-4 ovarian = system: OVCAR-4 ovarian
OVCAR-5 ovarian = system: OVCAR-5 ovarian
OVCAR-8 ovarian = system: OVCAR-8 ovarian
PC-3 prostate = system: PC-3 prostate
RPMI-8226 leukemia = system: RPMI-8226 leukemia
RXF 393 renal = system: RXF 393 renal
SF-268 CNS = system: SF-268 CNS
SF-295 CNS = system: SF-295 CNS
SF-539 CNS = system: SF-539 CNS
SK-MEL-2 melanoma = system: SK-MEL-2 melanoma
SK-MEL-28 melanoma = system: SK-MEL-28 melanoma
SK-MEL-5 melanoma = system: SK-MEL-5 melanoma
SK-OV-3 ovarian = system: SK-OV-3 ovarian
SN12C renal = system: SN12C renal
SNB-19 CNS = system: SNB-19 CNS
SNB-75 CNS = system: SNB-75 CNS
SR leukemia = system: SR leukemia
SW-620 colon = system: SW-620 colon
T-47D breast = system: T-47D breast
TK-10 renal = system: TK-10 renal
U251 CNS = system: U251 CNS
UACC-257 melanoma = system: UACC-257 melanoma
UACC-62 melanoma = system: UACC-62 melanoma
UO-31 renal = system: UO-31 renal

Oc1ccc(CSc2nnc(-c3ccc(Oc4ccccc4)cc3)n2-c2ccccc2)c2cccnc12
TGI (MOLT-4 leukemia): > 38500 nM | GI50 (NCI-H226 lung): 369 nM | TGI (NCI-H226 lung): > 100000 nM | GI50 (NCI-H23 lung): 260 nM | TGI (NCI-H23 lung): 25600 nM | GI50 (NCI-H460 lung): 38.5 nM | GI50 (NCI-H522 lung): 226 nM | GI50 (NCI/ADR-RES ovarian): 270 nM | TGI (NCI/ADR-RES ovarian): 6990 nM | GI50 (OVCAR-4 ovarian): 451 nM | TGI (OVCAR-4 ovarian): > 72300 nM | GI50 (OVCAR-5 ovarian): 639 nM | TGI (OVCAR-5 ovarian): > 100000 nM | GI50 (OVCAR-8 ovarian): 146 nM | TGI (OVCAR-8 ovarian): > 46500 nM | GI50 (PC-3 prostate): 83.4 nM | TGI (PC-3 prostate): > 100000 nM | GI50 (RPMI-8226 leukemia): 146 nM | TGI (RPMI-8226 leukemia): > 100000 nM | GI50 (RXF 393 renal): 981 nM | TGI (RXF 393 renal): > 58700 nM | GI50 (SF-268 CNS): 73.9 nM | TGI (SF-268 CNS): > 100000 nM | GI50 (SF-295 CNS): 208 nM | TGI (SF-295 CNS): > 69200 nM | GI50 (SF-539 CNS): 230 nM | TGI (SF-539 CNS): 9870 nM | GI50 (SK-MEL-2 melanoma): 442 nM | TGI (SK-MEL-2 melanoma): > 25500 nM | GI50 (SK-MEL-28 melanoma): 247 nM | TGI (SK-MEL-28 melanoma): > 100000 nM | GI50 (SK-MEL-5 melanoma): 222 nM | TGI (SK-MEL-5 melanoma): 2400 nM | GI50 (SK-OV-3 ovarian): 307 nM | GI50 (SN12C renal): 275 nM | TGI (SN12C renal): > 100000 nM | GI50 (SNB-19 CNS): 223 nM | TGI (SNB-19 CNS): > 100000 nM | GI50 (SNB-75 CNS): 188 nM | TGI (SNB-75 CNS): 22700 nM | GI50 (SR leukemia): 66.4 nM | TGI (SR leukemia): 20300 nM | GI50 (SW-620 colon): 182 nM | TGI (SW-620 colon): > 100000 nM | GI50 (T-47D breast): 263 nM | TGI (T-47D breast): 9180 nM | GI50 (TK-10 renal): 153 nM | TGI (TK-10 renal): > 42400 nM | GI50 (U251 CNS): 69.6 nM | TGI (U251 CNS): > 35600 nM | GI50 (UACC-257 melanoma): 186 nM | TGI (UACC-257 melanoma): 843 nM | GI50 (UACC-62 melanoma): 256 nM | TGI (UACC-62 melanoma): 1130 nM | GI50 (UO-31 renal): 142 nM | TGI (UO-31 renal): 2450 nM
